Laboratory results reported in patent US12370235B2, “Synthetic, non-natural antimicrobial peptides inspired by Staphylococcus auricularis delta toxin” (University of Saskatchewan, priority 2021, dated 2025).
Ends that are not written are not given here.

Legend:
S. aureus ATCC 29213 = assay: MIC, broth dilution; type: cell-based, Staphylococcus aureus; conditions: Table 5; STIP3 variants, highest concentration 100 μg/mL
Experimental: (§1) MIC determination. MICs were measured using peptides with 95% purity. For bacterial studies, cation-adjusted Mueller Hinton (MH) broth was used as the growth medium whereas Yeast Peptone Dextrose (YPD; 10 g/L yeast extract, 20 g/L peptone, 20 g/L dextrose) was used for Candida spp. and other yeast. Microorganisms were diluted to an optical density of […] in MH or YPD broth and a 180 μl volume was mixed with 20 μl of peptide arrayed as a 2-fold dilution series in a flat-bottom 96-well microtitre plate. A control was performed using 20 μl of sterile water. Plates were incubated as standing cultures overnight at 37° C.
(§2) Determination of minimum inhibitory concentrations. The MICs were measured for bioactive peptides identified from the initial screen. For bacterial studies, cation-adjusted Mueller Hinton (MH) broth was used as the growth medium whereas YPD was used for C. albicans. Bacterial cultures were diluted to a OD value of 6×10^−4 in MH broth and a 180 μl volume was mixed with 20 μl of peptide arrayed as 2-fold dilution series in a 96-well plate. For the positive control, 20 μl of sterile water was used. Plates were incubated as standing cultures overnight at 37° C. The lowest peptide concentration that resulted no observed microbial growth after an overnight treatment was defined as the MIC.

[1] = tested on: S. aureus ATCC 33592 (MRSA SCCmec type III); assay: MIC, broth dilution; type: cell-based, Staphylococcus aureus; conditions: Table 5; STIP3 variants, highest concentration 100 μg/mL
Experimental: as §1, §2

[2] = tested on: S. aureus ATCC BAA-1683 (MRSA SCCmec type IV); assay: MIC, broth dilution; type: cell-based, Staphylococcus aureus; conditions: Table 5; STIP3 variants, highest concentration 100 μg/mL
Experimental: as §1, §2

[3] = tested on: S. aureus ATCC BAA-2094 (MRSA SCCmec type V); assay: MIC, broth dilution; type: cell-based, Staphylococcus aureus; conditions: Table 5; STIP3 variants, highest concentration 100 μg/mL
Experimental: as §1, §2

[4] = tested on: S. aureus ATCC BAA-2313 (MRSA SCCmec type XI); assay: MIC, broth dilution; type: cell-based, Staphylococcus aureus; conditions: Table 5; STIP3 variants, highest concentration 100 μg/mL
Experimental: as §1, §2

[5] = tested on: S. aureus ATCC BAA-41 (MRSA SCCmec type II); assay: MIC, broth dilution; type: cell-based, Staphylococcus aureus; conditions: Table 5; STIP3 variants, highest concentration 100 μg/mL
Experimental: as §1, §2

[6] = tested on: S. aureus ATCC BAA-42 (MRSA SCCmec type VI); assay: MIC, broth dilution; type: cell-based, Staphylococcus aureus; conditions: Table 5; STIP3 variants, highest concentration 100 μg/mL
Experimental: as §1, §2

[7] = tested on: S. aureus ATCC BAA-44 (MRSA SCCmec type I); assay: MIC, broth dilution; type: cell-based, Staphylococcus aureus; conditions: Table 5; STIP3 variants, highest concentration 100 μg/mL
Experimental: as §1, §2

[8] = tested on: Mannheimia haemolytica ATCC 33393; assay: MIC, broth dilution; type: cell-based; conditions: Table 11; highest concentration 25 μg/mL
Experimental: as §1, §2
The ability of STIP3 variants to inhibit the growth of Mannheimia haemolytica ATCC 33393 was evaluated. This included an alanine scan of STIP3-1 (FIG. 8 & Table 10) as well as 30 rationally-designed STIPs that were evaluated in the preceding Examples against other pathogens (Table 11). Substitutions at a greater number of sites were tolerated in the context of antimicrobial activity. Moreover, the inclusion of basic natural and unnatural amino acids (e.g. lysine, ornithine, and arginine) at positions 3, 4 and 11 (i.e. X1, X2, and X4 of SEQ ID NO: 32) to afford a more uniformly cationic peptide increased activity against M. haemolytica.

C. albicans MYA-2876 = assay: MIC, YPD broth; type: cell-based, Candida albicans; conditions: Table 8
Experimental: as §1, §2

[9] = tested on: Candida duobushaemulonii AR 391; assay: MIC, YPD broth, CDC and FDA AR Candida isolate panel; type: cell-based; conditions: Table 9 below the line: only 200 or 100 μg/mL tested; values reported as 100 are ≤100 μg/mL
Experimental: as §1

[10] = tested on: Candida duobushaemulonii AR 392; assay: as above; type: cell-based; conditions: Table 9 below the line: only 200 or 100 μg/mL tested; values reported as 100 are ≤100 μg/mL
Experimental: as §1

[11] = tested on: Candida duobushaemulonii AR 394; assay: as above; type: cell-based; conditions: Table 9 below the line: only 200 or 100 μg/mL tested; values reported as 100 are ≤100 μg/mL
Experimental: as §1

[12] = tested on: Candida haemulonii AR 393; assay: as above; type: cell-based; conditions: Table 9 below the line: only 200 or 100 μg/mL tested; values reported as 100 are ≤100 μg/mL
Experimental: as §1

[13] = tested on: Candida haemulonii AR 395; assay: as above; type: cell-based; conditions: Table 9 below the line: only 200 or 100 μg/mL tested; values reported as 100 are ≤100 μg/mL
Experimental: as §1

Candida krusei AR 397 = assay: as above; type: cell-based; conditions: Table 9 below the line: only 200 or 100 μg/mL tested; values reported as 100 are ≤100 μg/mL
Experimental: as §1

[14] = tested on: Candida lusitaniae AR 398; assay: as above; type: cell-based; conditions: Table 9 below the line: only 200 or 100 μg/mL tested; values reported as 100 are ≤100 μg/mL
Experimental: as §1

Kodamae ohmeri AR 396 = assay: as above; type: cell-based; conditions: Table 9 below the line: only 200 or 100 μg/mL tested; values reported as 100 are ≤100 μg/mL
Experimental: as §1

[15] = tested on: Saccharomyces cerevisiae AR 399; assay: as above; type: cell-based; conditions: Table 9 below the line: only 200 or 100 μg/mL tested; values reported as 100 are ≤100 μg/mL
Experimental: as §1

[16] = tested on: Saccharomyces cerevisiae AR 400; assay: as above; type: cell-based; conditions: Table 9 below the line: only 200 or 100 μg/mL tested; values reported as 100 are ≤100 μg/mL
Experimental: as §1

Row | Sequence | MIC S. aureus ATCC 29213 (S. aureus ATCC 29213) | MIC S. aureus ATCC 33592 (III) [1] | MIC S. aureus ATCC BAA 1683 (IV) [2] | MIC S. aureus ATCC BAA 2094 (V) [3] | MIC S. aureus ATCC BAA 2313 (XI) [4] | MIC S. aureus ATCC BAA 41 (II) [5] | MIC S. aureus ATCC BAA 42 (VI) [6] | MIC S. aureus ATCC BAA 44 (I) [7] | MIC (μg/mL) M. haemolytica [8] | MIC C. albicans MYA-2876 (C. albicans MYA-2876) | MIC (μg/mL) Candida duobushaemulonii AR 391 [9] | MIC (μg/mL) Candida duobushaemulonii AR 392 [10] | MIC (μg/mL) Candida duobushaemulonii AR 394 [11] | MIC (μg/mL) Candida haemulonii AR 393 [12] | MIC (μg/mL) Candida haemulonii AR 395 [13] | MIC (μg/mL) Candida krusei AR 397 (Candida krusei AR 397) | MIC (μg/mL) Candida lusitaniae AR 398 [14] | MIC (μg/mL) Kodamae ohmeri AR 396 (Kodamae ohmeri AR 396) | MIC (μg/mL) Saccharomyces cerevisiae AR 399 [15] | MIC (μg/mL) Saccharomyces cerevisiae AR 400 [16]
1 | TVGGLVKWILNTVKKFA [STIP3-4, TVGGLVKWILNTVKKFA] | 100 µg/mL | 50 µg/mL | 100 µg/mL | 50 µg/mL | 100 µg/mL | 50 µg/mL | 50 µg/mL | 50 µg/mL | 25 µg/mL | 12.5 µg/mL | > (values below the line were determined using two concentrations of peptide 200 or 100 μg/mL) | > (values below the line were determined using two concentrations of peptide 200 or 100 μg/mL) | > (values below the line were determined using two concentrations of peptide 200 or 100 μg/mL) | > (values below the line were determined using two concentrations of peptide 200 or 100 μg/mL) | > (values below the line were determined using two concentrations of peptide 200 or 100 μg/mL) | ≤ 100 µg/mL | ≤ 100 µg/mL | > (values below the line were determined using two concentrations of peptide 200 or 100 μg/mL) | ≤ 100 µg/mL | ≤ 100 µg/mL
2 | TVGGLVKWILDTVKKFK [STIP3-7, TVGGLVKWILDTVKKFK] | > (no inhibition was observed at the highest concentration of peptide tested: 100 μg/mL for the STIP3 variants) | > (no inhibition was observed at the highest concentration of peptide tested: 100 μg/mL for the STIP3 variants) | > (no inhibition was observed at the highest concentration of peptide tested: 100 μg/mL for the STIP3 variants) | > (no inhibition was observed at the highest concentration of peptide tested: 100 μg/mL for the STIP3 variants) | > (no inhibition was observed at the highest concentration of peptide tested: 100 μg/mL for the STIP3 variants) | > (no inhibition was observed at the highest concentration of peptide tested: 100 μg/mL for the STIP3 variants) | > (no inhibition was observed at the highest concentration of peptide tested: 100 μg/mL for the STIP3 variants) | > (no inhibition was observed at the highest concentration of peptide tested: 100 μg/mL for the STIP3 variants) | 25 µg/mL | 50 µg/mL | > (values below the line were determined using two concentrations of peptide 200 or 100 μg/mL) | > (values below the line were determined using two concentrations of peptide 200 or 100 μg/mL) | > (values below the line were determined using two concentrations of peptide 200 or 100 μg/mL) | > (values below the line were determined using two concentrations of peptide 200 or 100 μg/mL) | > (values below the line were determined using two concentrations of peptide 200 or 100 μg/mL) | ≤ 100 µg/mL | ≤ 100 µg/mL | > (values below the line were determined using two concentrations of peptide 200 or 100 μg/mL) | ≤ 100 µg/mL | ≤ 100 µg/mL
3 | TVDGLVKWILATVKKFA [STIP3-17, TVDGLVKWILATVKKFA] | > (no inhibition was observed at the highest concentration of peptide tested: 100 μg/mL for the STIP3 variants) | > (no inhibition was observed at the highest concentration of peptide tested: 100 μg/mL for the STIP3 variants) | > (no inhibition was observed at the highest concentration of peptide tested: 100 μg/mL for the STIP3 variants) | > (no inhibition was observed at the highest concentration of peptide tested: 100 μg/mL for the STIP3 variants) | > (no inhibition was observed at the highest concentration of peptide tested: 100 μg/mL for the STIP3 variants) | > (no inhibition was observed at the highest concentration of peptide tested: 100 μg/mL for the STIP3 variants) | > (no inhibition was observed at the highest concentration of peptide tested: 100 μg/mL for the STIP3 variants) | > (no inhibition was observed at the highest concentration of peptide tested: 100 μg/mL for the STIP3 variants) | > (> symbol indicates that no inhibition was observed at the highest concentration of peptide tested: 25 μg/mL) | 12.5 µg/mL | > (values below the line were determined using two concentrations of peptide 200 or 100 μg/mL) | > (values below the line were determined using two concentrations of peptide 200 or 100 μg/mL) | > (values below the line were determined using two concentrations of peptide 200 or 100 μg/mL) | > (values below the line were determined using two concentrations of peptide 200 or 100 μg/mL) | > (values below the line were determined using two concentrations of peptide 200 or 100 μg/mL) | ≤ 100 µg/mL | ≤ 100 µg/mL | > (values below the line were determined using two concentrations of peptide 200 or 100 μg/mL) | ≤ 100 µg/mL | ≤ 100 µg/mL
